# Test results: PubChem BioAssay AID1595 (NINDS Approved Drug Screening Program, 2009)
# Results filed as inconclusive are left out.
# Tested on: Drosophila SCA1 polyglutamine model, toxicity suppression
# Assay: Drosophila SCA1 whole organism dose response for polyglutamine toxicity reduction (AID 1595)
row,Structure (SMILES),EC50
1,Cc1cc(C(C)(C)C)cc(C)c1CC1=NCCN1,250 nM
2,CC(N)CCCC(C)(C)O (centres undefined),50 nM
3,N#C/C(=C\c1ccc(O)cc1)C(=O)O,50 nM
4,OCC(S)CS (centres undefined),300 nM
5,NC(Cc1cc(I)c(Oc2ccc(O)c(I)c2)c(I)c1)C(=O)O (centres undefined),5000 nM
6,C[N+](C)(C)CC(=O)[O-],3000 nM
7,C=C1C2CC[C@H]3[C@]4(C)C[C@H](OC5OC(CO)C(OS(=O)(=O)O)C(OS(=O)(=O)O)C5OC(=O)CC(C)C)C[C@@H](C(=O)O)[C@H]4CC[C@]3(C2)[C@H]1O (some centres undefined),225 nM
8,CN1CCOC(c2ccccc2)c2ccccc2C1 (centres undefined),50 nM
9,C[C@@H]1CC2C3CCC4=CC(=O)C=C[C@]4(C)[C@@]3(F)[C@@H](O)C[C@]2(C)[C@@]1(O)C(=O)COP(=O)(O)O (some centres undefined),750 nM
10,NS(=O)(=O)c1cc(C2(O)NC(=O)c3ccccc32)ccc1Cl (centres undefined),5000 nM
11,C[N+](C)(C)CCOC(N)=O,3000 nM
12,C[C@@H]1O[C@@H](O[C@H]2[C@H](Oc3cc(O)c4c(c3)O[C@H](c3ccc(O)cc3)CC4=O)O[C@H](CO)[C@@H](O)[C@@H]2O)[C@H](O)[C@H](O)[C@H]1O,5000 nM
13,CCCCCCCCCCCCCCCC(=O)OC/C=C(C)/C=C/C=C(C)/C=C/C1=C(C)CCCC1(C)C,275 nM
14,CC(=O)OCC(=O)[C@H]1CCC2C3CCC4=CC(=O)CC[C@]4(C)C3CC[C@@]21C (some centres undefined),3000 nM
